In US12018023B2 (NERVIANO MEDICAL SCIENCES S.R.L., priority 2018, dated 2024):
Structures can show the parent of a compound that is named as a salt.

Legend:
IDH1^R132C = molecular target: T1, IDH1^R132C (Homo sapiens, UniProt O75874, R132C); experiment: NADPH depletion assay, IDH1 R132C; assay type: biochemical
T1 construct: purchased not specified
Description: (§1) IDH mutated enzyme activity converting alpha-ketoglutarate to 2-hydroxyglutaric acid is measured using a NADPH depletion assay. In the assay the remaining cofactor is measured at the end of the reaction with the addition of a catalytic excess of diaphorase and resazurin, to generate a fluorescent signal in proportion to the amount of NADPH remaining. IDH1 WT enzyme as well as mutated isoforms IDH1^R132H, IDH1^R132C, and IDH^2R172K enzymes are commercially available proteins (see e.g. Sino Biological, Abcam, Active Motif or Creative BioMart).
(§2) IDH1^R132H homodimer enzyme are diluted to 8 nM, in 10 μL of Assay Buffer (150 mM NaCl, 50 mM Tris-HCl pH 7.6, 10 mM MgCl2, 0.001% Triton X-100, 4 mM β-mercaptoethanol); 0.2 uL of test compound, previously serially diluted 1 to 3, >10 experimental points from 1 mM in DMSO, is added and the mixture is incubated for 15 minutes at room temperature. The reaction is started with the addition of 10 μL of Substrate Mix (12 uM NADPH, 3.4 mM alpha-ketoglutarate in Assay Buffer) and the mixture is incubated for 60 minutes at room temperature. The reaction is terminated with the addition of 5 μl of Detection Buffer (100 μg/mL diaphorase, 30 μM resazurin, in IX Assay Buffer), and is incubated for 15 minute before reading on a ViewLux as platereader at Ex544/Em590.
Compounds are assayed for their activity against IDH1^R132C following the same assay as above with the following modifications: IDH1^R132C and alpha-ketoglutarate final concentrations in the Assay Buffer is 2 nM and 0.14 mM, respectively.

[1] = molecular target: T2, IDH1^R132H homodimer enzyme (Homo sapiens, UniProt O75874, R132H); experiment: NADPH depletion assay, IDH1 R132H; assay type: biochemical
T2 construct: purchased not specified
T2 sequence (O75874 whole entry R132H): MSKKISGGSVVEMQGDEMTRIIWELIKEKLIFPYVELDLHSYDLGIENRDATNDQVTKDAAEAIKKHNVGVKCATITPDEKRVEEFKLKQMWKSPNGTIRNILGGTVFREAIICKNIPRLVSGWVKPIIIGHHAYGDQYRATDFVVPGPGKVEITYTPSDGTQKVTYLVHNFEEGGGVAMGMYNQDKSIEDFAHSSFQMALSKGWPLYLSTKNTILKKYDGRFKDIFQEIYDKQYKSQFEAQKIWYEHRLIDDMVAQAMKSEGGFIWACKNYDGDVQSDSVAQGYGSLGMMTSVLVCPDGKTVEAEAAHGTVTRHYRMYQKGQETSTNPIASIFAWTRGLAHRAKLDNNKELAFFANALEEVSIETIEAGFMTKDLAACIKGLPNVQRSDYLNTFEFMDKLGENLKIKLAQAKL
Description: as §1, §2

T1 sequence (O75874 whole entry R132C): as the sequence (O75874 whole entry R132H) above, with H132C counted along it

| Compound | IC50 (IDH1^R132C) [nM] | IC50 [1] [nM] |
| --- | --- | --- |
| COC(=O)c1ccc([C@H](C)Nc2ncc3ccc(=O)n(C(C)C)c3n2)cc1 [cpd 9, methyl 4-[(1S)-1-{[7-oxo-8-(propan-2-yl)-pyrido[2,3-d]pyrimidin-2-yl]amino}ethyl]benzoate] | 604 | 1530 |
| Cc1nc(N[C@@H](C)c2ccc(Cl)cc2)nc2c1ccc(=O)n2CC(C)C [cpd 32, 2-{[(1S)-1-(4-chlorophenyl)ethyl]amino}-4-methyl-8-(2-methylpropyl)pyrido[2,3-d]pyrimidin-7(8H)-one] | 1150 | 3770 |
| C[C@H](Nc1ncc2ccc(=O)n(CC(C)(C)C)c2n1)c1ccc(CN2CCNCC2)cc1 [cpd 138, 8-(2,2-Dimethyl-propyl)-2-[(S)-1-(4-piperazin-1-ylmethyl-phenyl)-ethylamino]-8H-pyrido[2,3-d]pyrimidin-7-one hydrochloride] | 777 | 2260 |
| COC(=O)c1ccc([C@H](C)Nc2ncc3ccc(=O)n(CC(C)C)c3n2)cc1 [cpd 5, methyl 4-[(1S)-1-{[8-(2-methylpropyl)-7-oxo-pyrido[2,3-d]pyrimidin-2-yl]amino}ethyl]benzoate] | 450 | 1130 |
| COCCn1c(=O)ccc2cnc(N[C@@H](C)c3ccc(CN4CCC(F)(F)CC4)cc3)nc21 [cpd 114, 2-{[(1S)-1-{4-[(4,4-difluoropiperidin-1-yl)methyl]phenyl}ethyl]amino}-8-(2-methoxyethyl)pyrido[2,3-d]pyrimidin-7(8H)-one] | 1910 | 2370 |
| CC(C)(C)Cn1c(=O)ccc2cnc(NC3(c4ccccc4)CC3)nc21 [cpd 42, 8-(2,2-dimethylpropyl)-2-[(1-phenylcyclopropyl)amino]pyrido[2,3-d]pyrimidin-7(8H)-one] | 951 | 1380 |
| COC(=O)c1ccc([C@H](C)Nc2ncc3ccc(=O)n(Cc4ccccc4)c3n2)cc1 [cpd 1, Methyl 4-{(1S)-1-[(8-benzyl-7-oxo-pyrido[2,3-d]pyrimidin-2-yl)amino]ethyl}benzoate] | 622 | 1830 |
| C[C@H](Nc1ncc2ccc(=O)n(Cc3c(F)cccc3F)c2n1)c1ccc(CO)cc1 [cpd 92, 8-(2,6-difluorobenzyl)-2-({(1S)-1-[4-(hydroxymethyl)phenyl]ethyl}amino)pyrido[2,3-d]pyrimidin-7(8H)-one] | 715 | 713 |
| C[C@H](Nc1ncc2ccc(=O)n(CC(F)(F)F)c2n1)c1ccc(Cl)cc1 [cpd 18, 2-{[(1S)-1-(4-chlorophenyl)ethyl]amino}-8-(2,2,2-trifluoroethyl)pyrido[2,3-d]pyrimidin-7(8H)-one] | 1550 | 4070 |
| C[C@H](Nc1ncc2ccc(=O)n(CC(C)(C)C)c2n1)c1ccc(C(=O)NC2CC(F)(F)C2)cc1 [cpd 85, N-(3,3-difluorocyclobutyl)-4-[(1S)-1-{[8-(2,2-dimethylpropyl)-7-oxo-pyrido[2,3-d]pyrimidin-2-yl]amino}ethyl]benzamide] | 1460 | 1770 |
| C[C@H](Nc1ncc2ccc(=O)n(CC(C)(C)C)c2n1)c1ccc(O)cc1 [cpd 145, 8-(2,2-Dimethyl-propyl)-2-[(S)-1-(4-hydroxy-phenyl)-ethylamino]-8H-pyrido[2,3-d]pyrimidin-7-one] | 1320 | 3560 |
| C[C@@H]1CN(Cc2ccc([C@H](C)Nc3ncc4ccc(=O)n([C@@H](C)C(F)(F)F)c4n3)cc2)C[C@H](C)O1 [cpd 164, 2-{[(1S)-1-(4-{[(2R,6S)-2,6-dimethylmorpholin-4-yl]methyl}phenyl)ethyl]amino}-8-[(2S)-1,1,1-trifluoropropan-2-yl]pyrido[2,3-d]pyrimidin-7(8H)-one] | 406 | 759 |
| CCn1c(=O)ccc2cnc(N[C@@H](C)c3ccc(CN4CCN(C(=O)OC(C)(C)C)CC4)cc3)nc21 [cpd 185, tert-butyl 4-(4-{(1S)-1-[(8-ethyl-7-oxo-7,8-dihydropyrido[2,3-d]pyrimidin-2-yl)amino]ethyl}benzyl)piperazine-1-carboxylate] | 1270 | 2370 |
| C[C@H](Nc1ncc2ccc(=O)n(Cc3c(F)cccc3F)c2n1)c1ccc(C(=O)NC2CCN(C)CC2)cc1 [cpd 76, 4-[(1S)-1-{[8-(2,6-difluorobenzyl)-7-oxo-pyrido[2,3-d]pyrimidin-2-yl]amino}ethyl]-N-(1-methylpiperidin-4-yl)benzamide] | 3630 | 2380 |
| C[C@H](Nc1ncc2ccc(=O)n(CC(F)(CF)CF)c2n1)c1ccc(CN2CCC(F)(F)CC2)cc1 [cpd 107, 8-[2,3-difluoro-2-(fluoromethyl)propyl]-2-{[(1S)-1-{4-[(4,4-difluoropiperidin-1-yl)methyl]phenyl)ethyl]amino) pyrido[2,3-d]pyrimidin-7(8H)-one] | 459 | 722 |
| C[C@H](Nc1ncc2ccc(=O)n(Cc3c(F)cccc3F)c2n1)c1ccc(C(=O)NC2CCOCC2)cc1 [cpd 78, 4-[(1S)-1-{[8-(2,6-difluorobenzyl)-7-oxo-pyrido[2,3-d]pyrimidin-2-yl]amino}ethyl]-N-(tetrahydro-2H-pyran-4-yl) benzamide] | 1380 | 896 |
| COC(=O)c1ccc([C@H](C)Nc2ncc3ccc(=O)n(Cc4ccc(F)cc4C(F)(F)F)c3n2)cc1 [cpd 8, methyl-4-[(1S)-1-({8-[4-fluoro-2-(trifluoromethyl)benzyl]-7-oxo-pyrido[2,3-d]pyrimidin-2-yl}amino)ethyl]benzoate] | 1380 | 2440 |

Other lines, results leading:

| IC50 (IDH1^R132C) [nM] | IC50 [1] [nM] | Compound |
| --- | --- | --- |
| 184 | 593 | CC(C)[C@H](C)n1c(=O)ccc2cnc(N[C@@H](C)c3ccc(C4=CCN(C(=O)C5CC5)CC4)cn3)nc21 [cpd 195, 2-({(1S)-1-[1′-(cyclopropylcarbonyl)-1′,2′,3′,6′-tetrahydro-3,4′-bipyridin-6-yl]ethyl}amino)-8-[(2S)-3-methylbutan-2-yl]pyrido[2,3-d]pyrimidin-7(8H)-one] |
| 61 | 103 | C=CC(=O)N1CCN(Cc2ccc([C@H](C)Nc3ncc4ccc(=O)n(CCN=[N+]=[N-])c4n3)cc2)CC1 [cpd 182, 2-{[(1S)-1-{4-[(4-acryloylpiperazin-1-yl)methyl]phenyl}ethyl]amino}-8-(2-azidoethyl)pyrido[2,3-d]pyrimidin-7(8H)-one] |
| 133 | 210 | CC(C#N)n1c(=O)ccc2cnc(N[C@@H](C)c3ccc(CN4CCCC(F)(F)C4)cc3)nc21 (stereo partly drawn) [cpd 64, 2-[2-{[(1S)-1-{4-[(3,3-difluoropiperidin-1-yl)methyl]phenyl}ethyl]amino}-7-oxopyrido[2,3-d]pyrimidin-8(7H)-yl]propanenitrile] |
| 177 | 478 | CC[C@H](Nc1ncc2ccc(=O)n(CC(C)(C)C)c2n1)c1ccccc1 [cpd 70, 8-(2,2-dimethylpropyl)-2-{[(1S)-1-phenylpropyl]amino}pyrido[2,3-d]pyrimidin-7(8H)-one] |
| 120 | 330 | CC(C)[C@H](C)n1c(=O)ccc2cnc(N[C@@H](C)c3ccc(CN4CCN(C)C(=O)C4)cc3)nc21 [cpd 188, 8-[(2S)-3-methylbutan-2-yl]-2-{[(1S)-1-{4-[(4-methyl-3-oxopiperazin-1-yl)methyl]phenyl}ethyl]amino}-pyrido [2,3-d]pyrimidin-7(8H)-one] |
| 190 | 461 | COc1ccc([C@H](C)Nc2ncc3ccc(=O)n(CC(C)(C)C)c3n2)cc1 [cpd 33, 8-(2,2-dimethylpropyl)-2-{[(1S)-1-(4-methoxyphenyl)ethyl]amino}pyrido[2,3-d]pyrimidin-7(8H)-one] |
| 386 | 717 | C[C@H](Nc1ncc2ccc(=O)n(CC(C)(C)C(N)=O)c2n1)c1ccc2ccccc2c1 [cpd 122, 2,2-dimethyl-3-[2-{[(1S)-1-(naphthalen-2-yl)ethyl]amino}-7-oxopyrido[2,3-d]pyrimidin-8(7H)-yl]propanamide] |
| 401 | 978 | CCN1CCN(c2ccc([C@H](C)Nc3ncc4ccc(=O)n([C@@H](C)C(C)C)c4n3)cc2)CC1 [cpd 177, 2-({(1S)-1-[4-(4-ethylpiperazin-1-yl)phenyl]ethyl}amino)-8-[(2S)-3-methylbutan-2-yl]pyrido[2,3-d]pyrimidin-7(8H)-one] |
| 40 | 126 | C[C@H](Nc1ncc2ccc(=O)n(CC(C)(C)C)c2n1)c1ccc(CN2CCN(C(=O)C3CC3)CC2)cc1 [cpd 158, 2-{[(1S)-1-(4-{[4-(cyclopropylcarbonyl)piperazin-1-yl]methyl}phenyl)ethyl]amino}-8-(2,2-dimethylpropyl) pyrido[2,3-d]pyrimidin-7(8H)-one] |
| 104 | 666 | C=CC(=O)N1CCN(Cc2ccc([C@H](C)Nc3nc(NC)c4ccc(=O)n(CC(C)(C)C)c4n3)cc2)CC1 [cpd 202, 2-{[(1S)-1-{4-[(4-acryloylpiperazin-1-yl)methyl]phenyl}ethyl]amino}-8-(2,2-dimethylpropyl)-4-(methylamino) pyrido[2,3-d]pyrimidin-7(8H)-one] |
